# Columns and labels:
# Format in all cases: in vivo
# [1] = system: wheat variety Ritmo; test: Plot trial in Germany: green leaf area by visual scoring; conditions: sprays at BBCH 39 and 59
# Experimental: In Germany a plot trial was set up with the wheat variety Ritmo in order to investigate the effect of bixafen on the physiology, morphology and abiotic stress tolerance of wheat plants under realistic agricultural conditions. The products under test were applied to the plants, in the form of sequential spray sequences (BBCH 39 and 59). The spray volume was 400 l of water per hectare. In each trial component, 5 repetitions were carried out. [table] The duration of green coloration of the leaf area was captured by regular visual scoring of the fraction of green leaf area.
# [2] = system: wheat variety Ritmo; test: Plot trial: chlorophyll content of leaves (pigment extraction method of Ziegler and Ehle)
# [3] = system: wheat variety Ritmo; test: Plot trial: yield components; conditions: sprays at BBCH 39 and 59
# [4] = system: infection-free wheat plants of the cultivar Passat; test: Glasshouse trial: green leaf area by visual scoring; conditions: glasshouse
# Experimental: (§1) In a glasshouse trial under controlled conditions, the effect of bixafen was investigated on the physiology, morphology and abiotic stress tolerance of infection-free wheat plants of the cultivar […] plants were grown in 10-litre containers over a period of 4 months. The substrate used was standard earth type ED 73 (Fröndenberg, Germany)+C-Horizont+Sand (4:2:1). The supply of nutrient to the plants took place by feeding with a 0.2% strength Flory 2 liquid fertilizer solution (from Euflor, Munich) once every two weeks. The plants were supplied with water as required. In each component of the trial, 10 repetitions were carried out. To prevent infestation with powdery mildew, Proquinazid (Talius® was applied once. The incidence of aphids and spider mites was avoided by treatments with Karate®, Bulldock® and Sumicidin®. The products under test were applied to the plants, in the form of sequential spray sequences (BBCH 39 and 59). The spray volume was 300 l of water per hectare. [table] The duration of the green coloration of the leaf area was captured on the basis of regular visual scoring of the fraction of the green leaf area.
# [5] = system: infection-free wheat plants of the cultivar Passat; test: Glasshouse trial: yield components; conditions: glasshouse, sprays at BBCH 39 and 59
# [6] = system: infection-free wheat plants of the cultivar Passat; test: Glasshouse trial: size of the flag leaf; conditions: at BBCH 83-85
# Experimental: as §1, with “Morphological parameters measured, additionally, were the length and width, i.e. the size” for “The duration”, “flag leaf. This was greatest with” for “green coloration of”, “succinate dehydrogenase (SDH) inhibitor bixafen, in comparison to” for “leaf area was captured on”, “other comparison fungicides.” for “basis of regular visual scoring of the fraction of the green leaf area.”
# [7] = system: infection-free wheat plants of the cultivar Passat; test: Glasshouse trial: time of heading (ear emergence); design: time of heading of wheat (ears emerged): unit not given here
# Experimental: (§2) In a glasshouse trial under controlled conditions, the effect of bixafen was investigated on the physiology, morphology and abiotic stress tolerance of infection-free wheat plants of the cultivar […] plants were grown in 10-litre containers over a period of 4 months. The substrate used was standard earth type ED 73 (Fröndenberg, Germany)+C-Horizont+Sand (4:2:1). The supply of nutrient to the plants took place by feeding with a 0.2% strength Flory 2 liquid fertilizer solution (from Euflor, Munich) once every two weeks. The plants were supplied with water as required. In each component of the trial, 10 repetitions were carried out.
# [8] = system: infection-free wheat plants of the cultivar Passat; test: Glasshouse trial: temperature of ears and leaves as measure of transpiration activity
# Experimental: as §2
# [9] = system: infection-free wheat plants of the cultivar Passat; test: Glasshouse trial: gas exchange activity of wheat ears; conditions: development stage BBCH 75
# Experimental: as §2
# [10] = 7 days after second fungicide application
# [11] = 14 days after second fungicide application
# [12] = 21 days after second fungicide application
# [13] = 28 days after second fungicide application
# [14] = 35 days after second fungicide application
# [15] = 42 days after second fungicide application
# [16] = 68 days after second fungicide application (so in the source)
# [17] = 75 days after second fungicide application (so in the source)
# [18] = 82 days after second fungicide application (so in the source)
# [19] = 89 days after second fungicide application (so in the source)
# [20] = 96 days after second fungicide application (so in the source)
# [21] = 103 days after second fungicide application (so in the source)
# [22] = 110 days after second fungicide application (so in the source)
# [23] = 117 days after second fungicide application (so in the source)
structure (smiles),measurement,setting,value
CCCN(CC)CC1COC2(CCC(C(C)(C)C)CC2)O1 (centres unmarked) [Spiroxamine],green leaf area of the flag leaf,[1]; [10],98.3 % leaf area
same,green leaf area of the second-from-top leaf (F-1),[1]; [10],97.4 % leaf area
same,green leaf area of the third-from-top leaf (F-2),[1]; [10],94.1 % leaf area
same,green leaf area of the flag leaf,[1]; [11],97.9 % leaf area
same,green leaf area of the second-from-top leaf (F-1),[1]; [11],95.8 % leaf area
same,green leaf area of the third-from-top leaf (F-2),[1]; [11],93.3 % leaf area
same,green leaf area of the flag leaf,[1]; [12],92.7 % leaf area
same,green leaf area of the second-from-top leaf (F-1),[1]; [12],85.8 % leaf area
same,green leaf area of the third-from-top leaf (F-2),[1]; [12],78.1 % leaf area
same,green leaf area of the flag leaf,[1]; [13],82.3 % leaf area
same,green leaf area of the second-from-top leaf (F-1),[1]; [13],69.7 % leaf area
same,green leaf area of the third-from-top leaf (F-2),[1]; [13],51.7 % leaf area
same,green leaf area of the flag leaf,[1]; [14],48.6 % leaf area
same,green leaf area of the second-from-top leaf (F-1),[1]; [14],31.7 % leaf area
same,green leaf area of the third-from-top leaf (F-2),[1]; [14],15.7 % leaf area
same,green leaf area of the flag leaf,[1]; [15],5.5 % leaf area
same,green leaf area of the second-from-top leaf (F-1),[1]; [15],0 % leaf area
same,green leaf area of the third-from-top leaf (F-2),[1]; [15],0 % leaf area
same,green leaf area of the second-from-top leaf (F-1),[1]; 49 days after second fungicide application,0 % leaf area
same,Chlorophyll content,"[2]; BBCH 75 (mature milk), leaf F",1471 µg/g
same,Chlorophyll content,"[2]; BBCH 75 (mature milk), leaf F-1",1245 µg/g
same,Chlorophyll content,"[2]; BBCH 75 (mature milk), leaf F-2",707 µg/g
same,Chlorophyll content,"[2]; BBCH 85 (mature dough), leaf F",114 µg/g
same,Chlorophyll content,"[2]; BBCH 85 (mature dough), leaf F-1",119 µg/g
same,Chlorophyll content,"[2]; BBCH 85 (mature dough), leaf F-2",147 µg/g
same,Ears/m^2,[3],409
same,Harvest Index,[3],59.3
same,Straw,[3],514 g m^−2
same,TKM (thousand-kernel mass),[3],44.2 g
same,Yield,[3],7.7 t ha^−1
same,green leaf area of the flag leaf (F),[4]; [16],100 % leaf area
same,green leaf area of the second-from-top leaf (F-1),[4]; [16],100 % leaf area
same,green leaf area of the third-from-top leaf (F-2),[4]; [16],100 % leaf area
same,green leaf area of the flag leaf (F),[4]; [17],100 % leaf area
same,green leaf area of the second-from-top leaf (F-1),[4]; [17],100 % leaf area
same,green leaf area of the third-from-top leaf (F-2),[4]; [17],95 % leaf area
same,green leaf area of the flag leaf (F),[4]; [18],100 % leaf area
same,green leaf area of the second-from-top leaf (F-1),[4]; [18],90 % leaf area
same,green leaf area of the third-from-top leaf (F-2),[4]; [18],73 % leaf area
same,green leaf area of the flag leaf (F),[4]; [19],92 % leaf area
same,green leaf area of the second-from-top leaf (F-1),[4]; [19],77 % leaf area
same,green leaf area of the third-from-top leaf (F-2),[4]; [19],45 % leaf area
same,green leaf area of the flag leaf (F),[4]; [20],80 % leaf area
same,green leaf area of the second-from-top leaf (F-1),[4]; [20],50 % leaf area
same,green leaf area of the third-from-top leaf (F-2),[4]; [20],19 % leaf area
same,green leaf area of the flag leaf (F),[4]; [21],55 % leaf area
same,green leaf area of the second-from-top leaf (F-1),[4]; [21],23 % leaf area
same,green leaf area of the third-from-top leaf (F-2),[4]; [21],7 % leaf area
same,green leaf area of the flag leaf (F),[4]; [22],23 % leaf area
same,green leaf area of the second-from-top leaf (F-1),[4]; [22],6 % leaf area
same,green leaf area of the third-from-top leaf (F-2),[4]; [22],0 % leaf area
same,green leaf area of the flag leaf (F),[4]; [23],3 % leaf area
same,green leaf area of the second-from-top leaf (F-1),[4]; [23],0 % leaf area
same,green leaf area of the third-from-top leaf (F-2),[4]; [23],0 % leaf area
same,Ears/pot,[5],40.9
same,Harvest Index,[5],36.3%
same,Kernels/ear,[5],23.2
same,Straw,[5],58.6 g/pot
same,TKM (thousand-kernel mass),[5],35.5 g
same,Yield,[5],33.4 g/pot
same,Length of the flag leaf,[6],26.1 cm
same,Width of the flag leaf,[6],1.2 cm
same,Area of the flag leaf,[6]; calculated using the formula A = 0.67 × length × width,20.98 cm^2
same,Area [rel.] of the flag leaf,[6]; untreated = 100,96 rel.
same,time of heading of wheat (ears emerged),[7]; 45 days after sowing,10.8
same,time of heading of wheat (ears emerged),[7]; 50 days after sowing,34.1
same,time of heading of wheat (ears emerged),[7]; 55 days after sowing,46.4
same,time of heading of wheat (ears emerged),[7]; 60 days after sowing,57.5
same,time of heading of wheat (ears emerged),[7]; 65 days after sowing,75.5
same,time of heading of wheat (ears emerged),[7]; 70 days after sowing,83.4
same,time of heading of wheat (ears emerged),[7]; 75 days after sowing,91.1
same,time of heading of wheat (ears emerged),[7]; 80 days after sowing,99.1
same,time of heading of wheat (ears emerged),[7]; 85 days after sowing,100
same,Temperature (as a measure of the transpiration activity),"[8]; BBCH 75, ear",23.2 °C
same,Temperature (as a measure of the transpiration activity),"[8]; BBCH 75, leaf",22.4 °C
same,Temperature (as a measure of the transpiration activity),"[8]; BBCH 80, ear",20.2 °C
same,Temperature (as a measure of the transpiration activity),"[8]; BBCH 80, leaf",16.4 °C
same,Temperature (as a measure of the transpiration activity),"[8]; BBCH 85, ear",25.1 °C
same,Temperature (as a measure of the transpiration activity),"[8]; BBCH 85, leaf",23.7 °C
same,Temperature (as a measure of the transpiration activity),"[8]; BBCH 90, ear",24.2 °C
same,Temperature (as a measure of the transpiration activity),"[8]; BBCH 90, lear (so in the source)",23.2 °C
same,Photosynthesis (gas exchange activity of wheat ears),[9],−2.36 a CO2 per ear
same,Respiration (gas exchange activity of wheat ears),[9],2.82 b CO2 per ear

# Reference: patent publication US20110196000A1, “Use of succinate dehydrogenase (SDH) inhibitors in the treatment of plant species from the family of the true grasses” (Bayer CropScience AG, priority 2010, published 2011)
